Structures are written as SMILES.

Assay [1] has as its system IL-2 secretion by human effector memory T cells (TEM). Kind of assay: Effector memory T cells IL-2 release assay. It is filed as cell-based. Conditions: T-cell; human CD4+ effector memory T cells, CD3/CD28 bead stimulation, 24 h; read-out: CD4TC IL2 IC50. In a few lines: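 Human CD4+ effector memory T cells from healthy-donor buffy coats were stimulated with anti-CD3/CD28 Dynabeads and exposed to 10 semi-log compound doses (0.1% DMSO) for 24 h at 37 °C. Supernatant IL-2 was measured by HTRF, and IC50 came from a 4-parameter logistic fit to maximal IL-2. Viability was checked by flow cytometry.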

Assay [2] has as its target Recombinant human MALT-1 (amino acids 340-824) (Homo sapiens (Human), UniProt Q9UDY8). Kind of assay: MALT-1 inhibition assay (fluorogenic substrate Ac-LRSR-Rh110-DP). The format is biochemical. Particulars: recombinant human MALT-1, substrate Ac-LRSR-Rh110-DP. In a few lines:
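MALT-1 at 3 nM final was reacted with 10 μM Ac-LRSR-Rh110-DP, with substrate addition starting the reaction. Incubation ran 60 minutes at 25° C in the dark. Percent inhibition from fluorescence across doses was fitted to a 4-parameter logistic to give IC50.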

Sequence of Recombinant human MALT-1 (amino acids 340-824) (Q9UDY8 340-824): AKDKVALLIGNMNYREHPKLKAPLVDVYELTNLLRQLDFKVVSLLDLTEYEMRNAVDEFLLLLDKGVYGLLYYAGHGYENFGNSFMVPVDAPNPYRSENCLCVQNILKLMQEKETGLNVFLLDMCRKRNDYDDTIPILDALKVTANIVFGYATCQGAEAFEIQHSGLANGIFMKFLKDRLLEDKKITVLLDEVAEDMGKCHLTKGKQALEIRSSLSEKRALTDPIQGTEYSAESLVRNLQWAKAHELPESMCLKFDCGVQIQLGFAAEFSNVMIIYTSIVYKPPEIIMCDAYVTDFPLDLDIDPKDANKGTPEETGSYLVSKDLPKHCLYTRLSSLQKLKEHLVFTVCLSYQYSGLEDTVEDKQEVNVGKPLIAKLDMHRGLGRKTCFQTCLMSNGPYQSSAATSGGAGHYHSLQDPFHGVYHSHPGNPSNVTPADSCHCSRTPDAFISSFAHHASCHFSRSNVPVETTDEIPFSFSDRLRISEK

For orientation: IC50 means the concentration that inhibits the measured activity by half. Take `COC[C@]1(C)CCN(c2ccc([C@H](N(C)C(=O)[C@H]3CC[S@@](=N)(=O)CC3)C(F)(F)F)cc2)c2cnc3cc(Cl)nn3c21` (relative stereo) [CPD0073131, (1rel-s,4rel-s)-N-[(1S)-1-[4-[(13rel-R)-4-chloro-13-(methoxymethyl)-13-methyl-2,3,7,10-tetrazatricyclo[7.4.0.0^2,6]trideca-1(9),3,5,7-tetraen-10-yl]phenyl]-2,2,2-trifluoro-ethyl]-1-imino-N-methyl-1-oxo-1λ^6-thiane-4-carboxamide]: the results for the IC50 in assay [1] and in assay [2] were 97 nM and 67 nM, respectively.

Regarding `COc1ccc2ncc(Nc3ccc([C@H](N(C)C(=O)[C@H]4CC[S@](=N)(=O)CC4)C(F)(F)F)cc3)c([C@@H](C)OC)c2n1` [CPD0075563], the values for the IC50 in assay [1] and in assay [2] were 257 nM and 102 nM, respectively.

Consider `CN(C(=O)C1CC(O)C1)[C@@H](c1ccc(N2CCCc3c2cnc2cc(Cl)nn32)cc1)C(F)(F)F` (stereo partly drawn) [CPD0021565, N-[(1S)-1-(4-{4-chloro-2,3,7,10-tetraazatricyclo[7.4.0.0^2,6]trideca-1(9),3,5,7-tetraen-10-yl}phenyl)-2,2,2-trifluoroethyl]-3-hydroxy-N-methylcyclobutane-1-carboxamide], for which the IC50 worked out at 86 nM in assay [1] and 84 nM in assay [2].

Regarding `COCC(=O)N1CC[C@H](C(=O)N(C)[C@@H](c2ccc(N3CCCc4c3cnc3cc(Cl)nn43)cc2)C(F)(F)F)C1` (relative stereo) [CPD0075874, (3rel-R)-N-[(1S)-1-[4-(4-chloro-2,3,7,10-tetrazatricyclo[7.4.0.0^2,6]trideca-1(9),3,5,7-tetraen-10-yl)phenyl]-2,2,2-trifluoro-ethyl]-1-(2-methoxyacetyl)-N-methyl-pyrrolidine-3-carboxamide], the IC50 in assay [1] stood at 230 nM; in assay [2], 95 nM.

On to `COC[C@@]1(C)CCN(c2ccc([C@H](N(C)C(=O)[C@H]3CC[S@@+]([O-])CC3)C(F)(F)F)cc2)c2cnc3cc(Cl)nn3c21` (relative stereo) [CPD0073137, (1rel-s,4rel-s)-N-[(1S)-1-[4-[(13rel-S)-4-chloro-13-(methoxymethyl)-13-methyl-2,3,7,10-tetrazatricyclo[7.4.0.0^2,6]trideca-1(9),3,5,7-tetraen-10-yl]phenyl]-2,2,2-trifluoro-ethyl]-N-methyl-1-oxo-1λ^4-thiane-4-carboxamide], for which the IC50 was 45 nM in assay [1] and 90 nM in assay [2].

For `CN(C(=O)C1CCCS(=O)(=O)C1)[C@@H](c1ccc(N2CCCc3c2cnc2cc(Cl)nn32)cc1)C(F)(F)F` (stereo partly drawn) [CPD0021571, N-[(1S)-1-(4-{4-chloro-2,3,7,10-tetraazatricyclo[7.4.0.0^2,6]trideca-1(9),3,5,7-tetraen-10-yl}phenyl)-2,2,2-trifluoroethyl]-N-methyl-1,1-dioxo-1λ^6-thiane-3-carboxamide], the results for the IC50 in assay [1] and in assay [2] were 332 nM and 247 nM, respectively.

With `CN1CC[C@H](C(=O)N(C)[C@@H](c2ccc(N3CCCc4c3cnc3cc(Cl)nn43)cc2)C(F)(F)F)CC1=O` (relative stereo) [CPD0073141, (4rel-S)-N-[(1S)-1-(4-{4-chloro-2,3,7,10-tetraazatricyclo[7.4.0.0^2,6]trideca-1(9),3,5,7-tetraen-10-yl}phenyl)-2,2,2-trifluoroethyl]-N,1-dimethyl-2-oxopiperidine-4-carboxamide], the IC50 in assay [1] is 197 nM; in assay [2] it was 67 nM.

For the compound `CN1CCN(CC(=O)N(C)[C@@H](c2ccc(N3CCCc4c3cnc3cc(Cl)nn43)cc2)C(F)(F)F)CC1` [CPD0021746, N-[(1S)-1-(4-{4-chloro-2,3,7,10-tetraazatricyclo[7.4.0.0^2,6]trideca-1(9),3,5,7-tetraen-10-yl}phenyl)-2,2,2-trifluoroethyl]-N-methyl-2-(4-methylpiperazin-1-yl)acetamide], the 50% inhibitory concentration (IC50) in assay [1] came to 466 nM; in assay [2], 522 nM.

On to `Cc1nn(C)cc1C(=O)N(C)[C@@H](c1ccc(N2CCCc3c2cnc2cc(Cl)nn32)cc1)C(F)(F)F` [CPD0019347, N-[(1S)-1-(4-{4-chloro-2,3,7,10-tetraazatricyclo[7.4.0.0^2,6]trideca-1(9),3,5,7-tetraen-10-yl}phenyl)-2,2,2-trifluoroethyl]-N,1,3-trimethyl-1H-pyrazole-4-carboxamide], for which the values for the IC50 in assay [1] and in assay [2] were 132 nM and 244 nM, respectively.

For the compound `COC[C@@]1(C)CCN(c2ccc([C@H](N(C)C(=O)[C@H]3CC[S@+]([O-])CC3)C(F)(F)F)cc2)c2cnc3cc(Cl)nn3c21` (relative stereo) [CPD0073138, (1rel-r,4 rel-r)-N-[(1S)-1-[4-[(13 rel-S)-4-chloro-13-(methoxymethyl)-13-methyl-2,3,7,10-tetrazatricyclo[7.4.0.0^2,6]trideca-1(9),3,5,7-tetraen-10-yl]phenyl]-2,2,2-trifluoro-ethyl]-N-methyl-1-oxo-1λ^4-thiane-4-carboxamide], the IC50 in assay [1] came out at 55 nM; in assay [2], 79 nM.

Take `CN(C(=O)[C@H]1C[C@](O)(C(F)(F)F)C1)[C@@H](c1ccc(N2CCCc3c2cnc2cc(Cl)nn32)cc1)C(F)(F)F` [CPD0072441, (1s,3s)-N-[(1S)-1-(4-{4-chloro-2,3,7,10-tetraazatricyclo[7.4.0.0^2,6]trideca-1(9),3,5,7-tetraen-10-yl}phenyl)-2,2,2-trifluoroethyl]-3-hydroxy-N-methyl-3-(trifluoromethyl)cyclobutane-1-carboxamide]: the IC50 in assay [1] was 222 nM; in assay [2] it was 113 nM.

As to `CN(C(=O)[C@H]1C[C@H](S(C)(=O)=O)C1)[C@@H](c1ccc(N2CCCc3c2cnc2cc(Cl)nn32)cc1)C(F)(F)F` [CPD0073501, trans-N-[(1S)-1-(4-{4-chloro-2,3,7,10-tetraazatricyclo[7.4.0.0^2,6]trideca-1(9),3,5,7-tetraen-10-yl}phenyl)-2,2,2-trifluoroethyl]-3-methanesulfonyl-N-methylcyclobutane-1-carboxamide], the IC50 was 140 nM in assay [1] and 66 nM in assay [2].

As to `CC(=O)N1CCC(C(=O)N(C)[C@@H](c2ccc(N3CCCc4c3cnc3cc(Cl)nn43)cc2)C(F)(F)F)CC1` [CPD0073089, 1-acetyl-N-[(1S)-1-(4-{4-chloro-2,3,7,10-tetraazatricyclo[7.4.0.0^2,6]trideca-1(9),3,5,7-tetraen-10-yl}phenyl)-2,2,2-trifluoroethyl]-N-methylpiperidine-4-carboxamide], the figures for the IC50 in assay [1] and in assay [2] were 79 nM and 46 nM, respectively.

`CN(C(=O)C1CCS(=O)(=O)CC1)[C@@H](c1ccc(N2CC(C)(C)Cc3c2cnc2cc(Cl)nn32)cc1)C(F)(F)F` [CPD0022149, N-[(1S)-1-(4-{4-chloro-12,12-dimethyl-2,3,7,10-tetraazatricyclo[7.4.0.0^2,6]trideca-1(9),3,5,7-tetraen-10-yl}phenyl)-2,2,2-trifluoroethyl]-N-methyl-1,1-dioxo-1λ^6-thiane-4-carboxamide]: the IC50 was 93 nM in assay [1] and 71 nM in assay [2].

`CN(C(=O)C1CCS(=O)(=O)CC1)[C@@H](c1ccc(N2CCC(C)(C)c3c2cnc2cc(Cl)nn32)cc1)C(F)(F)F` [CPD0019589, N-[(1S)-1-(4-{4-chloro-13,13-dimethyl-2,3,7,10-tetraazatricyclo[7.4.0.0^2,6]trideca-1(9),3,5,7-tetraen-10-yl}phenyl)-2,2,2-trifluoroethyl]-N-methyl-1,1-dioxo-1λ^6-thiane-4-carboxamide]: the IC50 in assay [1] is 32 nM; in assay [2], 38 nM.

With `CN(C(=O)[C@H]1CC[S@+]([O-])CC1)[C@@H](c1ccc(N2CCC3(CC3)c3c2cnc2cc(F)nn32)cc1)C(F)(F)F` (relative stereo) [CPD0072933, (1rel-r,4rel-r)-N-methyl-1-oxo-N-[(1S)-2,2,2-trifluoro-1-(4-{4′-fluoro-2′,3′,7′,10′-tetraazaspiro[cyclopropane-1,13′-tricyclo[7.4.0.0^2,6]tridecane]-1′(9′),3′,5′,7′-tetraen-10′-yl}phenyl)ethyl]-1λ^4-thiane-4-carboxamide], the IC50 is 58 nM in assay [1] and 33 nM in assay [2].

On to `CN(C(=O)CC1CCCS1(=O)=O)[C@@H](c1ccc(N2CCCc3c2cnc2cc(Cl)nn32)cc1)C(F)(F)F` (stereo partly drawn) [CPD0021934, N-[(1S)-1-(4-{4-chloro-2,3,7,10-tetraazatricyclo[7.4.0.0^2,6]trideca-1(9),3,5,7-tetraen-10-yl}phenyl)-2,2,2-trifluoroethyl]-2-(1,1-dioxo-1λ^6-thiolan-2-yl)-N-methylacetamide], for which the IC50 in assay [1] is 588 nM; in assay [2], 369 nM.

Consider `COC[C@]1(C)CCN(c2ccc([C@H](N(C)C(=O)[C@H]3CC[S@](=N)(=O)CC3)C(F)(F)F)cc2)c2cnc3cc(Cl)nn3c21` (relative stereo) [CPD0073132, (1rel-r,4rel-r)-N-[(1S)-1-[4-[(13rel-R)-4-chloro-13-(methoxymethyl)-13-methyl-2,3,7,10-tetrazatricyclo[7.4.0.0^2,6]trideca-1(9),3,5,7-tetraen-10-yl]phenyl]-2,2,2-trifluoro-ethyl]-1-imino-N-methyl-1-oxo-1λ^6-thiane-4-carboxamide], for which the IC50 in assay [1] came to 150 nM; in assay [2] it was 101 nM.

Consider `O=C(Nc1cnc(-n2nccn2)c(Cl)c1)c1cnn(-c2cccc3ncccc23)c1NCCCCl` [CPD0019183], for which the IC50 came to 10000 nM in assay [1] and 464 nM in assay [2].

In the case of `COc1ccc2ncc(N(C)c3ccc([C@H](N(C)C(=O)C4CCS(=O)(=O)CC4)C(F)(F)F)cc3)cc2n1` [CPD0021585, N-methyl-1,1-dioxo-N-[(1S)-2,2,2-trifluoro-1-{4-[(6-methoxy-1,5-naphthyridin-3-yl)(methyl)amino]phenyl}ethyl]-1λ^6-thiane-4-carboxamide], the IC50 in assay [1] was found to be 1680 nM; in assay [2] it was 863 nM.

(Values after patent publication US20250051327A1, “MALT-1 MODULATORS” (EXSCIENTIA AI LIMITED, priority 2020, published 2025).)
